Reference: patent US10919891B2, “Heterocyclic compound” (TAKEDA PHARMACEUTICAL COMPANY LIMITED, priority 2017, dated 2021)

Key:
[1] = target: T1, human CaSR (Homo sapiens, UniProt P41180); experiment: Human CaSR Antagonist Activity (CHO cells, NFAT-Luciferase reporter); format: cell-based; conditions: CHO, 2 h, 3.3 μm test compound; CaCl2 final 1.3 mM; 100% = reference carboxamide at 10 μM; read-out: Inhibition rate (%) at 3.3 μm
T1 construct: expressed in transfected cells; host or cells: CHO cells
T1 sequence (P41180 20-1078): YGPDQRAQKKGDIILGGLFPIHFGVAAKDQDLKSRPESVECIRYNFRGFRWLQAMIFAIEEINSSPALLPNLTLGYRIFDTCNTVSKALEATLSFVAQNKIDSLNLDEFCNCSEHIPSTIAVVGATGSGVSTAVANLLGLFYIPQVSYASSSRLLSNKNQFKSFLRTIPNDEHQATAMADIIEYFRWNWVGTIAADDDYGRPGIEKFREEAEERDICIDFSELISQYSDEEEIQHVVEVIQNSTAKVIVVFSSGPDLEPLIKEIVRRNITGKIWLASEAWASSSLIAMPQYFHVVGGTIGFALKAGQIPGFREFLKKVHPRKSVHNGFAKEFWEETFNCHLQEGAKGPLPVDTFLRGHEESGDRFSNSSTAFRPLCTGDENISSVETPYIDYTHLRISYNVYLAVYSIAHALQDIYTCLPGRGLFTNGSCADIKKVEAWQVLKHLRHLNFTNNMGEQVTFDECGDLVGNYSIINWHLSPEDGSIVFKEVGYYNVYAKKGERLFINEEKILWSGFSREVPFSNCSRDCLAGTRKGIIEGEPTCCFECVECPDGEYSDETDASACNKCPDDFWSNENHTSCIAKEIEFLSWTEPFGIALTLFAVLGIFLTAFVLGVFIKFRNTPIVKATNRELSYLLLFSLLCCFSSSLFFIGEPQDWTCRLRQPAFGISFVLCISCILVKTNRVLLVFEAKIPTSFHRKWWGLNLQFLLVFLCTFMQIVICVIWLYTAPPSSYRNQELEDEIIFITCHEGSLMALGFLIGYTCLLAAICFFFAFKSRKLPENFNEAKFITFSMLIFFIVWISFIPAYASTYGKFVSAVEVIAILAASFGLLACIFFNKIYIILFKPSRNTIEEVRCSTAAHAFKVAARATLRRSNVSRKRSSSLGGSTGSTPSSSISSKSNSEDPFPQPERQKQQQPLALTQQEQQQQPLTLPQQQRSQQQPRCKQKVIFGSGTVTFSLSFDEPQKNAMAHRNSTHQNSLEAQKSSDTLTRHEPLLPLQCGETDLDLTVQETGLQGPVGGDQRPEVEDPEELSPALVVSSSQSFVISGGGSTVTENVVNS
Method: CaSR antagonist activity measurement was performed using Bright-Glo Luciferase assay system (Promega Corporation). CHO cells in which human CaSR and NFAT-Luciferase reporter gene were forcibly expressed were suspended in MEM alpha (Wako Pure Chemical Industries, Ltd.) containing 10% dialyzed serum (HyClone). The cells in suspension was seeded in 384-well white plate (Corning) at 10,000/20 μL/well, and cultured in an incubator of 37° C., 5% CO2 for one day. A diluent of Test compound was prepared with assay buffer (MEM alpha containing 10 mM HEPES (Life Technologies) and 10% dialysis serum). The diluent was added to the plate at 5 μL/well and allowed to stand at 37° C. for 10 minutes. Further, a diluent of 7.8 mM CaCl2 prepared with assay buffer (final concentration 1.3 mM) was added at 5 μl/well and allowed to stand in an incubator of 37° C., 5% CO2 for 2 hours. Bright-Glo reagents (Promega Corporation) were added at 10 μL/well, and the obtained mixture was stirred for 5 minutes, and then luminescence intensity was measured using Multi-label reader Envision (PerkinElmer, Inc.). The activity (%) of the test compound was calculated with the definitions in which the luminescence intensity when DMSO is added in place of the test compound is defined as 0% inhibition; and the luminescence intensity when (5R)—N-(1-ethyl-1-(4-ethylphenyl)propyl)-2,7,7-trimethyl-5-phenyl-4,5,6,7-tetrahydropyrazolo[1,5-a]Pyrimidine-3-carboxamide at final concentration of 10 μM is added is defined as 100% inhibition.

[2] = system: CSQ-Tg mice; experiment: Heart weight lowering effect in heart failure animal model; format: in vivo; conditions: for Heart weight (Mean ± standard deviation (mg)): female CSQ-Tg mice
Method: In this Test Example, the heart weight lowering effect of the compound of Example 1 was evaluated using CSQ-Tg mice as animal model for heart failure.
The compound of Example 1 was suspended in 0.5% methylcellulose aqueous solution (hereinafter, in Test Examples, sometimes referred to as “vehicle”) (10 mL/kg). The obtained suspension was orally administered to 5-week old female CSQ-Tg mice developing heart failure at a dose of 10 mg/kg bodyweight/day (n=7) or 30 mg/kg bodyweight/day (n=10) once daily (QD) for 21 days. For a negative control (vehicle administration group), 0.5% methylcellulose aqueous solution (n=7) was administered. Then, weights of the hearts were measured. The measurement of the weights was carried out by fractionating each of the hearts into four: left ventricle, right ventricle, left atrium, and right atrium. The sum of the weights of the four fractions was defined as the heart weight.

[3] = system: CYP3A; experiment: CYP Induction (CYP3A activity in cryopreserved hepatocytes, P450-Glo CYP3A4 assay); format: in vitro ADME; conditions: % of positive control (inducibility by 10 μmol/L rifampicin = 100%); hepatocytes treated 3 days
Method: Cryopreserved hepatocytes were thawed in a culture medium (In VitroGRO™ CP Medium, Celsis In Vitro Technologies, U.S.A.), and the resultant was added to BioCoat™ Matrigel® Matrix Thin-Layer 96 well (Becton, Dickinson and Company, U.S.A.) at a concentration of 40,000 cells/well. After culturing for 24 hours, the culture medium was removed, and replaced with an incubation medium (In VitroGRO™, HI Medium with Torpedo Antibiotic Mix, Celsis In Vitro Technologies, U.S.A.). Cells were cultured for an additional 3 days. The medium was removed on day 4, and the remained cells were treated in the induction medium containing a test compound for 3 days in the presence or absence of 10 μmol/L rifampicin. The induction medium was replaced every day. The test compound addition wells in the presence of 10 μmol/L rifampicin were used to evaluate the inhibitory effect of the test compound on the inducibility of the CYP3A activity by rifampicin. The CYP3A activity was evaluated by measuring luciferin generating amount after the addition of 2 μmol/L luciferin-IPA using IPA P450-Glo™ CYP3A4 assay systems (Promega Corporation, U.S.A.). All cultures were carried out under a humidified environment at 37° C., 5% CO2. The inducibility by rifampicin was defines as 100%, and the inducibility of the test compound (% of positive control) was calculated from the following equation: [(luciferin fluorescence intensity in the absence of rifampicin and the presence of test compound)−(luciferin fluorescence intensity in the absence of rifampicin and test compound)/(luciferin fluorescence intensity in the presence of rifampicin and the absence of test compound)−(Luciferin fluorescence intensity in the absence of rifampicin and test compound)]×100.

[4] = 10 mg/kg bodyweight/day oral QD for 21 days
[5] = 30 mg/kg bodyweight/day oral QD for 21 days

## CC1(C)C[C@H](c2ccccc2)Nc2c(C(=O)N3C[C@@H]4C[C@]4(c4ccc(Cl)c(Cl)c4)C3)cnn21 [Example 1, ((1S,5R)-1-(3,4-Dichlorophenyl)-3-azabicyclo[3.1.0]hex-3-yl)((5R)-7,7-dimethyl-5-phenyl-4,5,6,7-tetrahydropyrazolo[1,5-a]pyrimidin-3-yl)methanone]
[1]
  inhibition at 3.3 µM: 100%
[2]; [4]
  Left atrium weight (Mean ± standard deviation (mg)): 10.7 ± 3.5 mg
  Left ventricle weight (Mean ± standard deviation (mg)): 160.1 ± 11.9 mg
  Right atrium weight (Mean ± standard deviation (mg)): 6.2 ± 3.1 mg
  Right ventricle weight (Mean ± standard deviation (mg)): 44.9 ± 5.1 mg
  Heart weight (Mean ± standard deviation (mg)): 221.9 ± 18.2 mg
[2]; [5]
  Left atrium weight (Mean ± standard deviation (mg)): 9.6 ± 2.6 mg
  Left ventricle weight (Mean ± standard deviation (mg)): 153.2 ± 12.7 mg
  Right atrium weight (Mean ± standard deviation (mg)): 5.8 ± 2.4 mg
  Heart weight (Mean ± standard deviation (mg)): 212.5 ± 21.9 mg
[2]; 30 mg/kg bodyweight/day oral QD for 21 days, ** Williams' multiple comparison test (p < 0.025)
  Right ventricle weight (Mean ± standard deviation (mg)): 43.9 ± 6.9** mg
[3]
  Inducibility (%): 4.9%
